Columns and labels:
Format in all cases: in vivo
[1] = tested on: velvetleaf (Abutilon theophrasti); assay: Test A pre-/postemergence: velvetleaf; conditions: for Velvetleaf plant response rating: Postemergence; for Plant response rating, Velvetleaf: Preemergence
Procedure, shortened: (§1)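 Each species received preemergence soil-directed spraying and, at the same time, postemergence treatment of seedlings 2–10 cm tall. Formulation: non-phytotoxic solvent mixture including surfactant. Response assessed visually about ten days on, relative to untreated controls, 0–100 scale.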

[2] = tested on: chickweed (common chickweed, Stellaria media); assay: Test C postemergence: chickweed
Procedure, shortened: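 Pot-grown plants in peat/vermiculite medium sprayed postemergence at 2–18 cm height (1- to 4-leaf stage). Kept in greenhouse 13 to 15 days, then visually rated against untreated controls on a 0–100 scale (0 = no effect, 100 = complete control).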

[3] = tested on: barnyardgrass (Echinochloa crus-galli); assay: Test B flooded paddy: barnyardgrass; conditions: Flood; 250 g ai/ha; applied to paddy water at 2-leaf stage; visually evaluated after 13 to 15 days
Procedure, shortened: (§2)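 Response scored visually, 0–100 relative to controls, 13–15 days after the compound was applied into paddy water; plants were at the 2-leaf stage in pots kept flooded to 3 cm.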

[4] = tested on: ducksalad (Heteranthera limosa); assay: Test B flooded paddy: ducksalad; conditions: Flood; 250 g ai/ha; applied to paddy water at 2-leaf stage; visually evaluated after 13 to 15 days
Procedure, shortened: as §2

kochia (Kochia scoparia) = assay: Test C pre-/postemergence: kochia
Procedure, shortened: (§3)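 Preemergence on seeds in loam/sand, postemergence on 2–18 cm (1–4-leaf) plants in peat-based medium; compounds in non-phytotoxic solvent with surfactant. After 13–15 days in greenhouse, visual rating versus controls, 0 (no effect) to 100 (complete control).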

[5] = tested on: foxtail, giant (giant foxtail, Setaria faberii); assay: Test C pre-/postemergence: foxtail, giant
Procedure, shortened: as §3

[6] = tested on: pigweed (Amaranthus retroflexus); assay: Test A pre-/postemergence: pigweed; conditions: for Pigweed plant response rating: Postemergence; for Plant response rating, Pigweed: Preemergence
Procedure, shortened: as §1

wild oat (Avena fatua) = assay: Test C pre-/postemergence: wild oat
Procedure, shortened: as §3

[7] = tested on: crabgrass, large (large crabgrass, Digitaria sanguinalis); assay: Test A pre-/postemergence: crabgrass, large; conditions: for Crabgrass, Large plant response rating: Postemergence; for Plant response rating, Crabgrass, Large: Preemergence
Procedure, shortened: as §1

[8] = tested on: foxtail, giant (giant foxtail, Setaria faberii); assay: Test A pre-/postemergence: foxtail, giant; conditions: for Foxtail, Giant plant response rating: Postemergence; for Plant response rating, Foxtail, Giant: Preemergence
Procedure, shortened: as §1

[9] = tested on: ragweed (common ragweed, Ambrosia elation); assay: Test C pre-/postemergence: ragweed
Procedure, shortened: as §3

[10] = 125 g ai/ha, 0 to 100 scale, 0 is no effect, 100 is complete control
[11] = 500 g ai/ha, visual rating on 0 to 100 scale (0 no effect, 100 complete control), approximately ten days
[12] = 125 g ai/ha, 0 to 100 scale (0 no effect, 100 complete control)
[13] = 500 g ai/ha, 0 to 100 scale, 0 is no effect, 100 is complete control
[14] = 31 g ai/ha, scale 0 to 100 (0 no effect, 100 complete control)
[15] = 62 g ai/ha, scale 0 to 100 (0 no effect, 100 complete control)
[16] = 125 g ai/ha, scale 0 to 100, 0 no effect, 100 complete control
[17] = Postemergence, 31 g ai/ha, scale 0 to 100 (0 no effect, 100 complete control)
[18] = Postemergence, 62 g ai/ha, scale 0 to 100 (0 no effect, 100 complete control)
[19] = Postemergence, 125 g ai/ha, scale 0 to 100, 0 no effect, 100 complete control
[20] = Postemergence, 250 g ai/ha, scale 0 to 100
[21] = Preemergence, 31 g ai/ha, scale of 0 to 100, 0 is no effect, 100 is complete control
[22] = Preemergence, 62 g ai/ha, scale of 0 to 100, 0 is no effect, 100 is complete control
[23] = Preemergence, 125 g ai/ha, scale 0 to 100, 0 no effect, 100 complete control
[24] = Preemergence, 250 g ai/ha, scale 0 to 100, 0 no effect, 100 complete control

Fc1ccc(-n2nc(Cc3ccnc(C(F)(F)F)c3)c(OC(F)F)n2)cc1 [Compound 25]
20: Plant response rating, Velvetleaf [1, 12] | Plant response rating, Oat, Wild (wild oat (Avena fatua); [21]) | Plant response rating, Ragweed [9, 23]
55: Plant response rating, Kochia (kochia (Kochia scoparia); [23]) | Plant response rating, Foxtail, Giant [5, 19]
98: Plant response rating, Chickweed [2, 16] | Plant response rating, Chickweed ([2]; 250 g ai/ha, scale 0 to 100) | Plant response rating, Foxtail, Giant [5, 21]
75: Plant response rating, Kochia (kochia (Kochia scoparia); [17])
50: Plant response rating, Ragweed [9, 17] | Plant response rating, Ragweed [9, 18] | Plant response rating, Ragweed [9, 24]
85: Plant response rating, Kochia (kochia (Kochia scoparia); [24])
45: Plant response rating, Foxtail, Giant [5, 18]
60: Plant response rating, Chickweed [2, 15] | Plant response rating, Foxtail, Giant [5, 20] | Plant response rating, Ragweed [9, 19] | Plant response rating, Ragweed [9, 20]
10: Plant response rating, Kochia (kochia (Kochia scoparia); [21])
90: Plant response rating, Ducksalad (0 to 100 scale, 0 is no effect, 100 is complete control) [4] | Plant response rating, Kochia (kochia (Kochia scoparia); [19]) | Plant response rating, Kochia (kochia (Kochia scoparia); [20]) | Plant response rating, Oat, Wild (wild oat (Avena fatua); [24]) | Crabgrass, Large plant response rating [7, 10] | Crabgrass, Large plant response rating [7, 11] | Plant response rating, Crabgrass, Large [7, 12] | Foxtail, Giant plant response rating [8, 10] | Foxtail, Giant plant response rating [8, 11]
40: Plant response rating, Kochia (kochia (Kochia scoparia); [22])
35: Plant response rating, Foxtail, Giant [5, 17]
30: Plant response rating, Chickweed [2, 14] | Plant response rating, Barnyardgrass (0 to 100 scale, 0 is no effect, 100 is complete control) [3] | Plant response rating, Oat, Wild (wild oat (Avena fatua); [19]) | Plant response rating, Oat, Wild (wild oat (Avena fatua); [20]) | Plant response rating, Oat, Wild (wild oat (Avena fatua); [22])
5: Plant response rating, Oat, Wild (wild oat (Avena fatua); [17]) | Plant response rating, Oat, Wild (wild oat (Avena fatua); [18]) | Plant response rating, Ragweed [9, 21] | Plant response rating, Ragweed [9, 22]
100: Velvetleaf plant response rating [1, 11] | Plant response rating, Foxtail, Giant [5, 22] | Plant response rating, Foxtail, Giant [5, 23] | Plant response rating, Foxtail, Giant [5, 24] | Pigweed plant response rating [6, 10] | Pigweed plant response rating [6, 11] | Plant response rating, Pigweed [6, 12] | Plant response rating, Pigweed [6, 13] | Plant response rating, Crabgrass, Large [7, 13] | Plant response rating, Foxtail, Giant [8, 12] | Plant response rating, Foxtail, Giant [8, 13]
80: Velvetleaf plant response rating [1, 10] | Plant response rating, Velvetleaf [1, 13] | Plant response rating, Kochia (kochia (Kochia scoparia); [18]) | Plant response rating, Oat, Wild (wild oat (Avena fatua); [23])

FC(F)Oc1nn(-c2ccc(C(F)(F)F)cc2)nc1Cc1ccnc(C(F)(F)F)c1 [Compound 26]
100: Velvetleaf plant response rating [1, 10] | Velvetleaf plant response rating [1, 11] | Plant response rating, Chickweed [2, 16] | Plant response rating, Chickweed ([2]; 250 g ai/ha, scale 0 to 100) | Plant response rating, Foxtail, Giant [5, 22] | Plant response rating, Foxtail, Giant [5, 23] | Plant response rating, Foxtail, Giant [5, 24] | Pigweed plant response rating [6, 10] | Pigweed plant response rating [6, 11] | Plant response rating, Pigweed [6, 12] | Plant response rating, Pigweed [6, 13] | Plant response rating, Crabgrass, Large [7, 12] | Plant response rating, Crabgrass, Large [7, 13] | Plant response rating, Foxtail, Giant [8, 12] | Plant response rating, Foxtail, Giant [8, 13]
55: Plant response rating, Ragweed [9, 18]
75: Plant response rating, Kochia (kochia (Kochia scoparia); [17]) | Plant response rating, Ragweed [9, 24]
95: Plant response rating, Kochia (kochia (Kochia scoparia); [18]) | Plant response rating, Kochia (kochia (Kochia scoparia); [19]) | Plant response rating, Kochia (kochia (Kochia scoparia); [22]) | Plant response rating, Kochia (kochia (Kochia scoparia); [23]) | Plant response rating, Oat, Wild (wild oat (Avena fatua); [24]) | Plant response rating, Ragweed [9, 20]
40: Plant response rating, Chickweed [2, 14] | Plant response rating, Ducksalad (0 to 100 scale, 0 is no effect, 100 is complete control) [4] | Plant response rating, Oat, Wild (wild oat (Avena fatua); [19]) | Plant response rating, Ragweed [9, 17]
80: Plant response rating, Velvetleaf [1, 12]
85: Plant response rating, Oat, Wild (wild oat (Avena fatua); [20])
35: Plant response rating, Ragweed [9, 22]
45: Plant response rating, Kochia (kochia (Kochia scoparia); [21]) | Plant response rating, Foxtail, Giant [5, 19] | Plant response rating, Oat, Wild (wild oat (Avena fatua); [21])
98: Plant response rating, Chickweed [2, 15] | Plant response rating, Kochia (kochia (Kochia scoparia); [20]) | Plant response rating, Kochia (kochia (Kochia scoparia); [24]) | Plant response rating, Foxtail, Giant [5, 21]
10: Plant response rating, Oat, Wild (wild oat (Avena fatua); [17])
30: Plant response rating, Foxtail, Giant [5, 18] | Plant response rating, Oat, Wild (wild oat (Avena fatua); [18])
25: Plant response rating, Foxtail, Giant [5, 17]
90: Plant response rating, Velvetleaf [1, 13] | Crabgrass, Large plant response rating [7, 10] | Crabgrass, Large plant response rating [7, 11] | Foxtail, Giant plant response rating [8, 10] | Foxtail, Giant plant response rating [8, 11] | Plant response rating, Ragweed [9, 19]
50: Plant response rating, Ragweed [9, 23]
15: Plant response rating, Ragweed [9, 21]
60: Plant response rating, Barnyardgrass (0 to 100 scale, 0 is no effect, 100 is complete control) [3] | Plant response rating, Foxtail, Giant [5, 20]
70: Plant response rating, Oat, Wild (wild oat (Avena fatua); [22]) | Plant response rating, Oat, Wild (wild oat (Avena fatua); [23])
